Measurements from patent US10344035B2, “Salt of quinolone compound, polymorphs thereof, preparation method therefor, composition, and applications” (SHANGHAI PHARMACEUTICALS HOLDING CO., LTD., priority 2015, dated 2019).
Structures can show the parent of a compound that is named as a salt.

Experiment: Pharmacokinetic study in rats
Conditions: for concentration at 60 min / concentration at 90 min / concentration at 120 min / concentration at 240 min / concentration at 360 min / concentration at 480 min / concentration at 720 min / concentration at 1440 min / concentration at 5 min / concentration at 15 min / concentration at 30 min: oral, 20 μmol/kg, intragastric 20 μmol/kg
Protocol: All stock solutions of the test compound were sonicated and heated to become clarified and formulated to a 25 mM solution with DMSO.
All samples were dosed at 20 μmol/kg.
The blood sample was centrifuged at 8000 rpm for 5 min, the plasma was collected in a centrifuge tube and stored at −20° C. for use.
Treatment of the plasma sample: the proteins in 50 μL plasma sample were precipitated with 200 μL acetonitrile containing internal standard (Propranolol (PRO), 2.5 ng/mL). Vortexed for 10 min, centrifuged at 6000 g for 10 min, the supernatant was taken and 5-fold diluted with the mobile phase, and the supernatant was injected into a 96-well plate for analysis.
flow rate: 0.3 mL/min; injection volume: 2 μL; column temperature 45° C. The gradient elution procedure was: […]
The ion source was an electrospray ionization source (Turbo Ionspray, ESI); the electrospray voltage was 5500V; the temperature was 500° C.; pressure of ion source gas 1 (N2) was 50 psi; pressure of ion source gas 2 (N2) was 50 psi; pressure of curtain gas (N2) 20 psi; pressure of collision gas (CAD) was Medium; scan time was 100 ms; positive ion mode detection; scan mode was multiple reaction monitoring (MRM), ion reaction and collision energy (CE) for quantitative analysis, declustering potential (DP) are shown in the following table: […]

[1] = SD (Sprague-Dawley), rat, plasma, Plasma concentration Mean, SD rats, mean of 3 rats
[2] = SD (Sprague-Dawley), rat, plasma, Plasma concentration Rat1, SD rats, Rat1
[3] = SD (Sprague-Dawley), rat, plasma, Plasma concentration Rat 2, SD rats, Rat 2
[4] = SD (Sprague-Dawley), rat, plasma, Plasma concentration Rat 3, SD rats, Rat 3
[5] = SD rats, intragastric, 20 umol/kg
[6] = SD, rat, plasma, Plasma concentration Mean, SD rats, mean of 3 rats
[7] = SD, rat, plasma, Plasma concentration Rat1, SD rats, Rat1
[8] = SD, rat, plasma, Plasma concentration Rat 2, SD rats, Rat 2
[9] = SD, rat, plasma, Plasma concentration Rat 3, SD rats, Rat 3

concentration at 60 min [1]: 910 nM
concentration at 90 min [1]: 730 nM
concentration at 120 min [1]: 600 nM
concentration at 240 min [1]: 430 nM
concentration at 360 min [1]: 180 nM
concentration at 480 min [1]: 80 nM
concentration at 720 min [1]: 30 nM
concentration at 1440 min [1]: 10 nM
concentration at 5 min [2]: 15.3 nM
concentration at 60 min [2]: 616 nM
concentration at 90 min [2]: 394 nM
concentration at 120 min [2]: 305 nM
concentration at 240 min [2]: 465 nM
concentration at 360 min [2]: 193 nM
concentration at 480 min [2]: 88.5 nM
concentration at 720 min [2]: 62.6 nM
concentration at 1440 min [2]: 8.08 nM
concentration at 5 min [3]: 42.5 nM
concentration at 60 min [3]: 1210 nM
concentration at 90 min [3]: 961 nM
concentration at 120 min [3]: 725 nM
concentration at 240 min [3]: 333 nM
concentration at 360 min [3]: 148 nM
concentration at 480 min [3]: 42 nM
concentration at 720 min [3]: 13.1 nM
concentration at 1440 min [3]: 6.99 nM
concentration at 5 min [4]: 22.2 nM
concentration at 60 min [4]: 897 nM
concentration at 90 min [4]: 835 nM
concentration at 120 min [4]: 758 nM
concentration at 240 min [4]: 495 nM
concentration at 360 min [4]: 211 nM
concentration at 480 min [4]: 107 nM
concentration at 720 min [4]: 25.7 nM
concentration at 1440 min [4]: 15.6 nM
Clearance [5]: 89 mL/min/kg
Vss [5]: 24.325 L/kg
Vz [5]: 35.978 L/kg
thalf [5]: 283.79 min
concentration at 5 min [6]: 30 nM
concentration at 15 min [6]: 530 nM
concentration at 30 min [6]: 1030 nM
concentration at 15 min [7]: 399 nM
concentration at 30 min [7]: 784 nM
concentration at 15 min [8]: 732 nM
concentration at 30 min [8]: 1320 nM
concentration at 15 min [9]: 448 nM
concentration at 30 min [9]: 990 nM
AUC(0-t) (SD, rat, plasma, po, 20 umol/kg, AUC(0-t), SD rats, intragastric): 3.73 µM·h
AUC (SD, rat, plasma, po, 20 umol/kg, AUCextra, SD rats, intragastric): 0.0715 µM·h
AUC (SD, rat, plasma, po, 20 umol/kg, AUCtot, SD rats, intragastric): 3.8 µM·h
Cmax (SD, rat, plasma, po, 20 umol/kg, Cmax, SD rats, intragastric): 1030 nM
MRT (SD, rat, plasma, po, 20 umol/kg, MRT, SD rats, intragastric): 4.53 h
Tmax (SD, rat, plasma, po, 20 umol/kg, Tmax, SD rats, intragastric): 0.5 h
Structure (SMILES): CNC(=O)c1ccc(-c2cnc3ncc(Cc4ccc5ncccc5c4)n3n2)cc1F [INCB28060 hydrochloride]
exposure in rats (comparison in words) (rats, 20 μmol/kg intragastric): not as good as that of crystal form A of SPH1772 ditartrate and crystal form A of SPH1772
